Assay results published in ChEMBL document CHEMBL4382235, “Design, synthesis and biological evaluation of novel 1-phenyl phenanthridin-6(5H)-one derivatives as anti-tumor agents targeting TOPK” (Eur J Med Chem, 2019).
One block for each compound: values may come before it.

Experiments:
A549 = test: cells; conditions: Homo sapiens, A549, 72 h
Description: Antiproliferative activity against human A549 cells after 72 hrs by MTT assay

HCT-15 [1] = test: cells; conditions: Homo sapiens, HCT-15, 72 h
Description: Antiproliferative activity against human HCT15 cells after 72 hrs by MTT assay

HCT-116 [2] = test: cells; conditions: Homo sapiens, HCT-116, 72 h
Description: Antiproliferative activity against human HCT116 cells after 72 hrs by MTT assay

[3] = Tmax in Sprague-Dawley rat at 15 mg/kg, po by LC-MS/MS analysis; assay type: ADME, organism-based; conditions: in vivo
[4] = Toxicity in nude mouse xenografted with human HCT15 cells assessed as body weight loss at 10 to 15 mg/kg, qd administered via gavage for 3 weeks; assay type: organism-based; conditions: in vivo, po, 504 h
[5] = Half life in Sprague-Dawley rat at 2 mg/kg, iv by LC-MS/MS analysis; assay type: ADME, organism-based; conditions: in vivo
[6] = Clearance in Sprague-Dawley rat at 2 mg/kg, iv by LC-MS/MS analysis; assay type: ADME, organism-based; conditions: in vivo
[7] = Volume of distribution at steady state in Sprague-Dawley rat at 2 mg/kg, iv by LC-MS/MS analysis; assay type: ADME, organism-based; conditions: in vivo
HCT-116 [8] = test: animal or person; conditions: Mus musculus, HCT-116, po, read-out: TGI
[9] = AUC (0 to 24 hrs) in Sprague-Dawley rat at 15 mg/kg, po by LC-MS/MS analysis; assay type: ADME, organism-based; set-up: dose 15 mg/kg, time < 24 hr, route oral; conditions: in vivo
[10] = Toxicity in nude mouse xenografted with human HCT116 cells assessed as body weight loss at 10 to 15 mg/kg, qd administered via gavage for 3 weeks; assay type: organism-based; conditions: in vivo, po, 504 h
[11] = Tmax in Sprague-Dawley rat at 2 mg/kg, iv by LC-MS/MS analysis; assay type: ADME, organism-based; conditions: in vivo
HCT-116 [12] = test: animal or person; conditions: Mus musculus, HCT-116, po, read-out: TGI; remark: listed apart in the source
SW-620 [13] = test: animal or person; conditions: Mus musculus, SW-620, po, read-out: TGI
HCT-15 [14] = test: animal or person; conditions: Mus musculus, HCT-15, po, read-out: TGI
[15] = Cmax in Sprague-Dawley rat at 15 mg/kg, po by LC-MS/MS analysis; assay type: ADME, organism-based; set-up: dose 15 mg/kg, route oral; conditions: in vivo
[16] = MRT (0 to t) in Sprague-Dawley rat at 2 mg/kg, iv by LC-MS/MS analysis; assay type: ADME, organism-based; conditions: in vivo
[17] = Toxicity in nude mouse xenografted with human SW620 cells assessed as body weight loss at 10 to 15 mg/kg, qd administered via gavage for 3 weeks; assay type: organism-based; conditions: in vivo, po, 504 h
[18] = AUC (0 to t) in Sprague-Dawley rat at 2 mg/kg, iv by LC-MS/MS analysis; assay type: ADME, organism-based; conditions: in vivo
[19] = MRT (0 to t) in Sprague-Dawley rat at 15 mg/kg, po by LC-MS/MS analysis; assay type: ADME, organism-based; conditions: in vivo
[20] = Cmax in Sprague-Dawley rat at 2 mg/kg, iv by LC-MS/MS analysis; assay type: ADME, organism-based; set-up: dose 2 mg/kg, route intravenous; conditions: in vivo
SW-620 [21] = test: animal or person; conditions: Mus musculus, SW-620, po, read-out: TGI; remark: listed apart in the source
[22] = Oral bioavailability in Sprague-Dawley rat at 15 mg/kg by LC-MS/MS analysis; assay type: ADME, organism-based; conditions: in vivo
HCT-15 [23] = test: animal or person; conditions: Mus musculus, HCT-15, po, read-out: TGI; remark: listed apart in the source

IC50 (A549): 19.5 nM | IC50 (HCT-15 [1]): 187 nM | IC50 (HCT-116 [2]): 18.9 nM
Structure (SMILES): Cc1cc(O)c(-c2ccc([C@@H](C)CN)cc2)c2c1[nH]c(=O)c1sccc12

IC50 (A549): 894 nM | IC50 (HCT-116 [2]): > 1000 nM
Structure (SMILES): COc1cc(C)c2[nH]c(=O)c3ccccc3c2c1-c1ccc(C2(CN)CC2)cc1

IC50 (A549): 136 nM | IC50 (HCT-116 [2]): 44.7 nM
Structure (SMILES): Cc1cc(O)c(-c2ccc(C3(CN)CC3)cc2)c2c1[nH]c(=O)c1c(O)cccc12

Tmax [3]: 6.67 h | IC50 (A549): 5.41 nM | half-life [5]: 7.02 h | CL [6]: 33.9532 mL/min/kg | Vdss [7]: 20.25 L/kg | AUC(0-t) at 24 h [9]: 4230 ng·h/mL | Tmax [11]: 4.8 min | Cmax [15]: 251 ng/mL | MRT(t) [16]: 3.24 h | AUC(0-t) [18]: 564 ng·h/mL | MRT last [19]: 10.5 h | Cmax [20]: 188 ng/mL | IC50 (HCT-15 [1]): 31.4 nM | bioavailability [22]: 100% | IC50 (HCT-116 [2]): 7.87 nM
Structure (SMILES): Cc1cc(O)c(-c2ccc([C@@H](C)CN)cc2)c2c1[nH]c(=O)c1c(O)cccc12
Activity [4]: Non-Toxic | inhibition in vivo at 15 mg/kg (HCT-116 [8]): 75.8% | Activity [10]: Non-Toxic | inhibition in vivo at 10 mg/kg (HCT-116 [12]): 53.7% | inhibition in vivo at 15 mg/kg (SW-620 [13]): 79.7% | inhibition in vivo at 10 mg/kg (HCT-15 [14]): 42.1% | Activity [17]: Non-Toxic | inhibition in vivo at 10 mg/kg (SW-620 [21]): 72.1% | inhibition in vivo at 15 mg/kg (HCT-15 [23]): 78.8%

IC50 (A549): > 1000 nM | IC50 (HCT-15 [1]): > 1000 nM | IC50 (HCT-116 [2]): > 1000 nM
Structure (SMILES): C[C@H](c1ccc(-c2c(O)cc(Cl)c3[nH]c(=O)c4ccccc4c23)cc1)N(C)C

IC50 (A549): > 1000 nM | IC50 (HCT-116 [2]): 950 nM
Structure (SMILES): Cc1cc(O)c(-c2ccc(C3(CN(C)C)CC3)cc2)c2c1[nH]c(=O)c1ccccc12

IC50 (A549): > 1000 nM | IC50 (HCT-116 [2]): 962 nM
Structure (SMILES): Cc1ccc2c(c1)c(=O)[nH]c1c(C)cc(O)c(-c3ccc([C@@H](C)CN)cc3)c12

IC50 (A549): > 1000 nM | IC50 (HCT-116 [2]): 571 nM
Structure (SMILES): Cc1ccc2c(c1)c(=O)[nH]c1c(C)cc(O)c(-c3ccc([C@@H](C)N)cc3)c12

IC50 (A549): 82.5 nM | IC50 (HCT-15 [1]): 96.7 nM | IC50 (HCT-116 [2]): 102 nM
Structure (SMILES): Cc1cc(O)c(-c2ccc([C@@H](C)N)cc2)c2c1[nH]c(=O)c1c(O)cccc12

IC50 (A549): 920 nM | IC50 (HCT-15 [1]): > 1000 nM | IC50 (HCT-116 [2]): > 1000 nM
Structure (SMILES): Cc1cc(O)c(-c2ccc([C@@H](C)N)cc2)c2c1[nH]c(=O)c1ccccc12

IC50 (A549): > 1000 nM | IC50 (HCT-15 [1]): > 1000 nM | IC50 (HCT-116 [2]): > 1000 nM
Structure (SMILES): C[C@@H](CN(C)C)c1ccc(-c2c(O)cc(Cl)c3[nH]c(=O)c4ccccc4c23)cc1

IC50 (A549): 120 nM | IC50 (HCT-15 [1]): 217 nM | IC50 (HCT-116 [2]): 385 nM
Structure (SMILES): Cc1ccc2c(=O)[nH]c3c(C)cc(O)c(-c4ccc([C@@H](C)N)cc4)c3c2c1

IC50 (A549): > 1000 nM | IC50 (HCT-116 [2]): 830 nM
Structure (SMILES): Cc1ccc2c(c1)c(=O)[nH]c1c(C)cc(O)c(-c3ccc([C@@H](C)CN(C)C)cc3)c12

IC50 (A549): 437 nM | IC50 (HCT-116 [2]): 564 nM
Structure (SMILES): NCC1(c2ccc(-c3c(O)cc(Cl)c4[nH]c(=O)c5c(O)cccc5c34)cc2)CC1

IC50 (A549): 211 nM | IC50 (HCT-15 [1]): 398 nM | IC50 (HCT-116 [2]): 231 nM
Structure (SMILES): Cc1cc(O)c(-c2ccc(C3(CN)CC3)cc2)c2c1[nH]c(=O)c1ccccc12

IC50 (A549): > 1000 nM | IC50 (HCT-116 [2]): > 1000 nM
Structure (SMILES): Cc1cc(O)c(-c2ccc([C@@H](C)CN)cc2)c2c1[nH]c(=O)c1c(N(C)C)cccc12

IC50 (A549): 60.3 nM | IC50 (HCT-15 [1]): 327 nM | IC50 (HCT-116 [2]): 156 nM
Structure (SMILES): Cc1ccc2c(=O)[nH]c3c(C)cc(O)c(-c4ccc([C@@H](C)CN)cc4)c3c2c1

IC50 (A549): 20.4 nM | IC50 (HCT-15 [1]): 73.1 nM | IC50 (HCT-116 [2]): 45 nM
Structure (SMILES): Cc1cc(O)c(-c2ccc([C@@H](C)CN(C)C)cc2)c2c1[nH]c(=O)c1sccc12
inhibition in vivo at 15 mg/kg (HCT-116 [8]): 49.4%

IC50 (A549): > 1000 nM | IC50 (HCT-116 [2]): > 1000 nM
Structure (SMILES): Cc1ccc2c(c1)c(=O)[nH]c1c(C)cc(O)c(-c3ccc([C@@H](C)N(C)C)cc3)c12

IC50 (A549): 554 nM | IC50 (HCT-116 [2]): 720 nM
Structure (SMILES): C[C@@H](N)c1ccc(-c2c(O)cc(Cl)c3[nH]c(=O)c4c(O)cccc4c23)cc1

IC50 (A549): 317 nM | IC50 (HCT-15 [1]): 467 nM | IC50 (HCT-116 [2]): 274 nM
Structure (SMILES): Cc1ccc2c(=O)[nH]c3c(C)cc(O)c(-c4ccc([C@@H](C)N(C)C)cc4)c3c2c1
